The results in this text go back to patent US20200148646A1, “6-S[…] 7-S[…] ANALOGS AND THE USE THEREOF” (Purdue Pharma, L.P., priority 2013, published 2020).

For assay [1], the target named is T1, μ-opioid receptor (Homo sapiens, UniProt P35372). Description: μ-opioid receptor [35S]GTPγS functional assay, HEK-293 or CHO cells. Conditions: for Emax: HEK-293 or CHO cells, relative to DAMGO. The class given is biochemical. The protocol: [^35S]GTPγS functional assays were conducted using freshly thawed μ-receptor membranes prepared in-house from a cell line expressing recombinant opioid receptor in a HEK-293, CHO or U-2 OS cell background, or purchased from a commercial source (Perkin Elmer, Shelton, Conn.; or DiscovRx, Fremont, Calif.). Assay reactions were prepared by sequentially adding the following reagents to binding buffer (100 mM NaCl, 10 mM MgCl2, 20 mM HEPES, pH 7.4) on ice (final concentrations indicated): membrane protein (0.026 mg/mL), saponin ([…]), GDP ([…]) and [^35S]GTPγS (0.20 nM; Perkin Elmer, Shelton, Conn.). The prepared membrane solution (190 l/well) was transferred to 96-shallow well polypropylene plates containing 10 μl of 20× concentrated stock solutions of the agonist [D-Ala^2, N-methyl-Phe^4 Gly-ol^5]-enkephalin (DAMGO) prepared in dimethyl sulfoxide (DMSO). Plates were incubated for 30 min at about 25° C. with shaking. Reactions were terminated by rapid filtration onto 96-well Unifilter GF/B filter plates (Perkin Elmer, Shelton, Conn.) using a 96-well tissue harvester (Perkin Elmer, Shelton, Conn.) followed by three filtration washes with 200 μl of ice-cold wash buffer (10 mM NaH2PO4, 10 mM Na2HPO4, pH 7.4). Filter plates were subsequently dried at 50° C. for 2-3 hr. BetaScint scintillation cocktail (Perkin Elmer, Shelton, Conn.) was added (50 μl/well) and plates were counted using a Packard Top-Count for 1 min/well. Data were analyzed using the sigmoidal dose-response curve fitting functions in GraphPad PRISM v. 3.0, or an in-house function for non-linear, sigmoidal dose-response curve-fitting.
μ GTP EC50 is the concentration of a compound providing 50% of the maximal response for the compound at a μ-opioid receptor.
μ GTP Emax (%) is the maximal effect elicited by a compound relative to the effect elicited by DAMGO, a standard agonist. Generally, the μ GTP Emax (%) value measures the efficacy of a compound to treat or prevent pain or other Conditions.
In TABLE 2, activity response of certain Compounds of the Invention at the μ- and κ-opioid receptors using HEK-293 or CHO cells was determined as described above for functional assays.
On the technique in general: Binding of GTPγS marks nucleotide exchange on a G protein.

Assay [2] addresses T1, μ-opioid receptor. Description: μ-opioid receptor radioligand ([3H]-diprenorphine) dose-displacement binding assay, HEK-293 or CHO cells. The protocol:
Radioligand dose-displacement binding assays for μ-opioid receptors used 0.3 nM [^3H]-diprenorphine (Perkin Elmer, Shelton, Conn.), with […] membrane protein/well in a final volume of 500 μl binding buffer (10 mM MgCl2, 1 mM EDTA, 5% DMSO, 50 mM HEPES, pH 7.4). Reactions were carried out in the absence or presence of increasing concentrations of unlabeled naloxone. All reactions were conducted in 96-deep well polypropylene plates for 2 hr at room temperature. Binding reactions were terminated by rapid filtration onto 96-well Unifilter GF/C filter plates (Perkin Elmer, Shelton, Conn.), presoaked in 0.5% polyethylenimine using a 96-well tissue harvester (Perkin Elmer, Shelton, Conn.) followed by performing three filtration washes with 500 μl of ice-cold binding buffer. Filter plates were subsequently dried at 50° C. for 2-3 hours. BetaScint scintillation cocktail (Perkin Elmer, Shelton, Conn.) was added (50 l/well), and plates were counted using a Packard Top-Count for 1 min/well. The data were analyzed using the one-site competition curve fitting functions in GraphPad PRISM™ v. 3.0 or higher (San Diego, Calif.), or an in-house function for one-site competition curve-fitting.
(§1) In TABLE 1, binding affinity of certain Compounds of the Invention to the μ-, and κ-opioid receptors in HEK-293 or CHO cells was determined as described above.

Assay [3] deals with T2, human κ opioid receptor (Homo sapiens, UniProt P41145). Description: κ-opioid receptor radioligand ([3H]-U69,593) dose-displacement binding assay, HEK-293 or CHO cells. Set-up: expressed in transfected cells; host or cells: HEK-293 cells (in-house prep). On the procedure:
Membranes from recombinant HEK-293 cells expressing the human K opioid receptor (cloned in house) were prepared by lysing cells in ice cold hypotonic buffer (2.5 mM MgCl2, 50 mM HEPES, pH 7.4) (10 mL/10 cm dish) followed by homogenization with a tissue grinder/Teflon pestle. Membranes were collected by centrifugation at 30,000×g for 15 min at 4° C. and pellets were resuspended in hypotonic buffer to a final concentration of 1-3 mg/mL. Protein concentrations were determined using the BioRad protein assay reagent with bovine serum albumen as standard. Aliquots of κ receptor membranes were stored at −80° C.
Radioligand dose displacement assays used 0.4 nM [^3H]-U69,593 (GE Healthcare, Piscataway, N.J.; 40 Ci/mmole) with 15 μg membrane protein (recombinant K opioid receptor expressed in HEK 293 cells; in-house prep) in a final volume of 200 μl binding buffer (5% DMSO, 50 mM Trizma base, pH 7.4). Non-specific binding was determined in the presence of 10 μM unlabeled naloxone or U69,593. All reactions were performed in 96-well polypropylene plates for 1 hr at a temperature of about 25° C. Binding reactions were terminated by rapid filtration onto 96-well Unifilter GF/C filter plates (Perkin Elmer, Shelton, Conn.) presoaked in 0.5% polyethylenimine (Sigma). Harvesting was performed using a 96-well tissue harvester (Perkin Elmer, Shelton, Conn.) followed by five filtration washes with 200 μl ice-cold binding buffer. Filter plates were subsequently dried at 50° C. for 1-2 hours. Fifty μl/well scintillation cocktail (Perkin Elmer, Shelton, Conn.) was added and plates were counted in a Packard Top-Count for 1 min/well.
as §1

The target of assay [4] is T1, μ-opioid receptor. Description: μ-opioid receptor [35S]GTPγS functional assay, U-2 OS cells. Conditions: for Emax: U2-OS cells, relative to DAMGO. More on the design: host or cells: U-2 OS cells. The class given is biochemical. The method in brief:
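U-2 OS membranes expressing recombinant human μ-receptor (0.026 mg/mL) were incubated with compound, […], saponin and [35S]GTPγS 0.20 nM in HEPES/NaCl/MgCl2 buffer pH 7.4 for 30 min at about 25° C. Filter-bound radioactivity gave sigmoidal fits for EC50; Emax is relative to DAMGO.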

Assay [5] addresses T2, human κ opioid receptor. Put plainly: κ-opioid receptor [35S]GTPγS functional assay, U-2 OS cells. It counts as biochemical. More on the design: expressed in transfected cells; host or cells: U-2 OS cells (in-house membranes). Conditions: for Emax: U2-OS cells, relative to U69,593. In outline:
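Membranes from U-2 OS cells expressing human κ receptor (0.026 μg/μl protein) were incubated with agonist, 10 μg/mL saponin, 3 μM GDP and 0.20 nM [35S]GTPγS in pH 7.4 HEPES buffer for 30 min at about 25 °C. Bound radioactivity was measured after filtration. EC50 was taken at half-maximal response; Emax is relative to U69,593.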

Each structure is given as a SMILES string.

T2 sequence (P41145 whole entry): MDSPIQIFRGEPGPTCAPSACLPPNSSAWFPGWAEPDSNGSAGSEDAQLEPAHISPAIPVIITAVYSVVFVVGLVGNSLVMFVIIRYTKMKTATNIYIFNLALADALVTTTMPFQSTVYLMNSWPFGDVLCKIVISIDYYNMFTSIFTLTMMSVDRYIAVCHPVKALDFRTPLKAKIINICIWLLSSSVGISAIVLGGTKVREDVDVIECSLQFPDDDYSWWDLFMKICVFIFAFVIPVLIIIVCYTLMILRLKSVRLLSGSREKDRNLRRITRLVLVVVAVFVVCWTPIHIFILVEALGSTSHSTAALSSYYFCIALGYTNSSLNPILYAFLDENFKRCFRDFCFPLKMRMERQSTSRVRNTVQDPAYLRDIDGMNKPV
T1 sequence (P35372 whole entry, species assumed): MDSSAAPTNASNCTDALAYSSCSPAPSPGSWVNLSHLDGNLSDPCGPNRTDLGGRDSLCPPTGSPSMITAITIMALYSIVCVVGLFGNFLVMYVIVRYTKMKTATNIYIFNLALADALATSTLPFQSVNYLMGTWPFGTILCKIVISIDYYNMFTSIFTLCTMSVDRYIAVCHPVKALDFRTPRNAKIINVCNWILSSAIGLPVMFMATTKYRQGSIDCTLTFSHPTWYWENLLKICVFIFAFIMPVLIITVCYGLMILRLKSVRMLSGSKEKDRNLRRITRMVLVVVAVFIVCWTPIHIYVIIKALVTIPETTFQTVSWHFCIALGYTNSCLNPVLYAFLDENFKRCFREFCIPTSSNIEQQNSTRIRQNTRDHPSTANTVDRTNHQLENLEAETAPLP

For orientation: EC50 means the midpoint of the concentration-response curve. Low values mean an effect from little substance, high ones a need for much substance. As a reminder, the Emax is the maximal effect, on the per cent scale that the assay sets. Broadly, the Ki is the equilibrium dissociation constant of an inhibitor or competing ligand from its target. The compound `COc1ccc2c(c1)[C@]13CCN(CC4CC4)[C@H](C2)[C@]1(O)C[C@H](C)[C@H](O)C3` [Compound 3, (4bR,6R,7S,8aS,9R)-11-(cyclopropylmethyl)-3-methoxy-7-methyl-5,6,7,8,9,10-hexahydro-8aH-9,4b-(epiminoethano)phenanthrene-6,8a-diol] displayed a half-maximal effective concentration (EC50) on μ-opioid receptor [1] of 2750 nM. This compound also came in with an Emax at μ-opioid receptor [1] of 58.7 ± 4.18%. In addition, the Ki on μ-opioid receptor [2] stood at 6140 ± 963 nM; on human κ opioid receptor [3], 3010 ± 339 nM.
As to `COc1ccc2c(c1)[C@]13CCN(CC4CC4)[C@H](C2)[C@]1(O)C[C@H](CO)[C@H](O)C3` [Compound 7, (4bR,6R,7R,8aS,9R)-11-(cyclopropylmethyl)-7-(hydroxymethyl)-3-methoxy-5,6,7,8,9,10-hexahydro-8aH-9,4b-(epiminoethano)phenanthrene-6,8a-diol], on μ-opioid receptor [1], the EC50 was determined as 4910 nM. The Emax on μ-opioid receptor [1] was found to be 53.7 ± 4.37%. In addition, the results for the inhibition constant Ki at μ-opioid receptor [2] and at human κ opioid receptor [3] were 10800 ± 843 nM and 7300 ± 1640 nM, respectively.
Regarding `CN(C)[C@H]1CC[C@@]2(O)[C@H]3Cc4ccc(O)cc4[C@@]2(CCN3CC2CC2)C1` [Compound 10, (4bR,6S,8aS,9R)-11-(cyclopropylmethyl)-6-(dimethylamino)-5,6,7,8,9,10-hexahydro-8aH-9,4b-(epiminoethano)phenanthrene-3,8a-diol], the half-maximal effective concentration (EC50) on μ-opioid receptor [1] is above 20000 nM; at μ-opioid receptor [4] it was 4.69 ± 0.74 nM; on human κ opioid receptor [5] it was 0.79 ± 0.07 nM. Further, the Emax at μ-opioid receptor [1] was 2.5%; at μ-opioid receptor [4], 33 ± 1.15%; at human κ opioid receptor [5], 101 ± 6.23%. Besides, the results for the Ki at μ-opioid receptor [2] and on human κ opioid receptor [3] were 3.84 ± 1.36 nM and 0.057 ± 0.01 nM, respectively.
As to `NCCN[C@@H]1CC[C@@]2(O)[C@H]3Cc4ccc(O)cc4[C@@]2(CCN3CC2CC2)C1` [Compound 11, (4bR,6R,8aS,9R)-6-((2-aminoethyl)amino)-11-(cyclopropylmethyl)-5,6,7,8,9,10-hexahydro-8aH-9,4b-(epiminoethano)phenanthrene-3,8a-diol], the EC50 is above 20000 nM at μ-opioid receptor [1], 37.9 ± 12 nM on μ-opioid receptor [4] and 2.75 ± 0.48 nM at human κ opioid receptor [5]. Moreover, the Emax worked out at 6.33 ± 1.67% on μ-opioid receptor [1], 70 ± 8.08% on μ-opioid receptor [4] and 119 ± 0.58% on human κ opioid receptor [5]. The inhibitory constant (Ki) at μ-opioid receptor [2] amounted to 71 ± 28.1 nM; at human κ opioid receptor [3] it was 0.29 ± 0.049 nM.
As to `N=C(N)NCCN[C@@H]1CC[C@@]2(O)[C@H]3Cc4ccc(O)cc4[C@@]2(CCN3CC2CC2)C1` [Compound 12, 1-(2-(((4bR,6R,8aS,9R)-11-(cyclopropylmethyl)-3,8a-dihydroxy-6,7,8,8a,9,10-hexahydro-5H-9,4b-(epiminoethano)phenanthren-6-yl)amino)ethyl)guanidine], the EC50 was above 20000 nM at μ-opioid receptor [1], 32.7 ± 2.82 nM on μ-opioid receptor [4] and 5.06 ± 0.29 nM at human κ opioid receptor [5]. Further, the results for the Emax on μ-opioid receptor [1], on μ-opioid receptor [4] and at human κ opioid receptor [5] were 5.33 ± 0.88%, 64.7 ± 5.17% and 105 ± 1.76%, respectively. For the same compound, the results for the inhibition constant (Ki) on μ-opioid receptor [2] and on human κ opioid receptor [3] were 53.2 ± 8.9 nM and 0.29 ± 0.13 nM, respectively.
With `NCCCN[C@@H]1CC[C@@]2(O)[C@H]3Cc4ccc(O)cc4[C@@]2(CCN3CC2CC2)C1` [Compound 13, (4bR,6R,8aS,9R)-6-((3-aminopropyl)amino)-11-(cyclopropylmethyl)-5,6,7,8,9,10-hexahydro-8aH-9,4b-(epiminoethano)phenanthrene-3,8a-diol], the EC50 on μ-opioid receptor [4] amounted to 38.9 ± 4.9 nM; at human κ opioid receptor [5], 2.13 ± 0.41 nM. In addition, the maximal response (Emax) was determined as 66.3 ± 5.78% at μ-opioid receptor [4] and 117 ± 1.86% on human κ opioid receptor [5]. Also, the inhibition constant Ki on μ-opioid receptor [2] was 80 ± 27.1 nM; on human κ opioid receptor [3], 0.51 ± 0.073 nM.
On to `N=C(N)NCCC(=O)N[C@@H]1CC[C@@]2(O)[C@H]3Cc4ccc(O)cc4[C@@]2(CCN3CC2CC2)C1` [Compound 21, N-((4bR,6R,8aS,9R)-11-(cyclopropylmethyl)-3,8a-dihydroxy-6,7,8,8a,9,10-hexahydro-5H-9,4b-(epiminoethano)phenanthren-6-yl)-3-guanidinopropanamide], for which the Ki on μ-opioid receptor [2] came to 1010 ± 221 nM. Also, on human κ opioid receptor [3], the affinity corresponds to a Ki of 4.61 ± 1.05 nM. Further, on human κ opioid receptor [5], a half-maximal response (EC50) required 120 ± 2.94 nM and the Emax was found to be 105.3 ± 0.88%.
With `CC(C)CCCC(=O)N[C@H]1C[C@@]2(O)[C@H]3Cc4ccc(O)cc4[C@@]2(CCN3CC2CC2)C[C@H]1O` [Compound 62, N-((4bR,6R,7S,8aS,9R)-11-(cyclopropylmethyl)-3,6,8a-trihydroxy-6,7,8,8a,9,10-hexahydro-5H-9,4b-(epiminoethano)phenanthren-7-yl)-5-methylhexanamide], the EC50 at μ-opioid receptor [1] stood at 54.7 ± 4.52 nM; on μ-opioid receptor [4] it was 43.3 ± 5.6 nM; on human κ opioid receptor [5] it was 17.4 ± 1.46 nM. The Emax at μ-opioid receptor [1] turned out to be 23.3 ± 0.67%; on μ-opioid receptor [4], 60.3 ± 0.88%; at human κ opioid receptor [5], 90.2 ± 1.65%.
Consider `O=C1C=C2[C@H]3Cc4ccc(O)cc4[C@]2(CC1)CCN3CC1CC1` [Compound 68, (4bS,9R)-11-(cyclopropylmethyl)-3-hydroxy-5,6,9,10-tetrahydro-7H-9,4b-(epiminoethano)phenanthren-7-one], for which the EC50 is above 20000 nM on μ-opioid receptor [1], 4.54 ± 1.28 nM at μ-opioid receptor [4] and 1.67 ± 0.099 nM at human κ opioid receptor [5]. Also, the figures for the Emax on μ-opioid receptor [1], at μ-opioid receptor [4] and on human κ opioid receptor [5] were 6 ± 3%, 31.3 ± 1.33% and 104 ± 2.31%, respectively.
With `COc1ccc2c(c1)[C@]13CCN(CC4CC4)[C@H](C2)[C@]12C[C@H](OCc1ccccc1)[C@H](C3)O2` [Compound 102, (4bR,6S,7S,8aS,9R)-7-(benzyloxy)-11-(cyclopropylmethyl)-3-methoxy-5,6,7,8,9,10-hexahydro-9,4b-(epiminoethano)-6,8a-epoxyphenanthrene], the EC50 at μ-opioid receptor [1] was found to be 1520 ± 465 nM; at μ-opioid receptor [4] it was 470 ± 69.9 nM; on human κ opioid receptor [5] it was 1920 nM. Also, the Emax at μ-opioid receptor [1] turned out to be 10.5 ± 1.26%; on μ-opioid receptor [4], 42 ± 1.73%; at human κ opioid receptor [5], 58.3 ± 0.67%.
